Test results reported in US20100222396A1 (Novartis AG, priority 2009, published 2010).

Columns and labels:
[1] = target: T1, human orexin 2 receptor (hOx2R) (Homo sapiens, UniProt O43614); assay: Calcium accumulation in cells (FLIPR), antagonism of orexin A, hOx2R; type: cell-based; settings: for Kd: cells expressing human orexin 2 receptor, IC50 vs orexin A converted by Cheng and Prusoff correction; for inhibition at 10 µM: measured at a concentration of 10 μM of compound (cells marked ^a)
T1 construct: expressed in transfected cells
T1 sequence (O43614 1-444): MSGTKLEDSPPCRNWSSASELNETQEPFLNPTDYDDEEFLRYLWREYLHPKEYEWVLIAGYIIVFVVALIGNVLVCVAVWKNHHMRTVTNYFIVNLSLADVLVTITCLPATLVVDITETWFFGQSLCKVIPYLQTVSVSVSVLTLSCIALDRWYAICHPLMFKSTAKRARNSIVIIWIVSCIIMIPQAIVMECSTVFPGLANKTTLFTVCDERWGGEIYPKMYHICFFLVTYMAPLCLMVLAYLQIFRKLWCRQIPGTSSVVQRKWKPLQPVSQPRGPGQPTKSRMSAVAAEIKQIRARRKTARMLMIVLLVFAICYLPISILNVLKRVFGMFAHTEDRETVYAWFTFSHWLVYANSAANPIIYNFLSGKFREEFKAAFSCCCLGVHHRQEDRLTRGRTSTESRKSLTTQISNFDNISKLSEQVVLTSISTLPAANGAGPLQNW
Method in brief: (§1)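 Serum-starved receptor-expressing cells were loaded with Fluo-4-AM (2 μM) plus probenecid (0.1 mM) in HEPES buffer, pH 7.4, with 1% BSA, and Ca2+ fluorescence was read on FLIPR. Compounds (10^−9–10^−5 M) were added first, and orexin A was added one hour later to measure antagonism.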

[2] = target: T2, human orexin 1 receptor (hOx1R) (Homo sapiens, UniProt O43613); assay: Radioligand binding assay ([125I]orexin A competition), hOx1R; settings: CHO or HEK cell membranes, 1 h room temperature
T2 construct: expressed in transfected cells
T2 sequence (O43613 1-425): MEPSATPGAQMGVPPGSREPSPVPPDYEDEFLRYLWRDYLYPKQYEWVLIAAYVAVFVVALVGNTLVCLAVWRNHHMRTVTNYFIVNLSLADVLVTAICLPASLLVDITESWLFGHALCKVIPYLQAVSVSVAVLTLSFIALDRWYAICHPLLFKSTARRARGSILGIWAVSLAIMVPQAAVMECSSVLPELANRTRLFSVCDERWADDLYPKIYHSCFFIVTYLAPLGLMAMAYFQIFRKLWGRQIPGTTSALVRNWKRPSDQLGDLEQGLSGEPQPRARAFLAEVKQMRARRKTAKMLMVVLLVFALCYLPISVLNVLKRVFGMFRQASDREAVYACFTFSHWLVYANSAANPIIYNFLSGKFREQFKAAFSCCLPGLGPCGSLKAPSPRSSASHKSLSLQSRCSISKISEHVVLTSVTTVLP
Procedure: (§2) For crude cell membrane preparations, cells (CHO, Chinese hamster ovary or HEK, human embryonic kidney) expressing human orexin 1 or human orexin 2 receptors, were washed with HEPES (10 mM, pH 7.5), scraped off the culture plates with the same buffer, and centrifuged at 4° C. for 5 min at 2500×g. The cell pellet was either stored at −80° C. or used directly. Before the experiments, cell membranes were re-suspended in binding assay buffer (10 mM HEPES, 0.5% (w/v) bovine serum albumin, pH 7.5) by homogenisation with a Polytron homogeniser at 50 Hz for 20 s. Cell membranes were also used as made available by commercial providers.
(§3) In initial saturation experiments (to calculate Bmax), cell homogenates (150 μl) were incubated with 25-300 pM of the radioligand ([^125I]orexin A, 50 μl), 8 concentrations in triplicates in the presence or absence Orexin A (1 μM, 50 μl) to define non specific binding. Bound radioactivity was measured, and data were analysed with the program XLFIT or Graphpad Prism. Protein concentration was determined according to the Bradford/BioRad Protein Assay Kit.
(§4) In competition experiments, cell homogenates (150 μl) were incubated in assay buffer (10 mM HEPES, pH 7.5, 0.5% (w/v) bovine serum albumin, 5 mM MgCl2, […], and tween 0.05%) for 1 h at room temperature with about […] of the radioligand ([^125I]orexin A, 2100 Ci/mmole, 50 μl), and with various concentrations of compounds of the invention (50 μl) in triplicates; non-specific binding was determined in the presence of Orexin A (1 μM). Reactions were terminated by vacuum filtration, 3 washes of ice cold wash buffer (Tris-HCl pH 7.4/10 mM, with NaCl 154 mM). Competition data is expressed in Table 1 as Kd [μM].

[3] = target: T1, human orexin 2 receptor (hOx2R); assay: Radioligand binding assay ([125I]orexin A competition), hOx2R; settings: CHO or HEK cell membranes, 1 h room temperature
Procedure: as §2, §3, §4

[4] = target: T2, human orexin 1 receptor (hOx1R); assay: Calcium accumulation in cells (FLIPR), antagonism of orexin A, hOx1R; type: cell-based; settings: for Kd: cells expressing human orexin 1 receptor, IC50 vs orexin A converted by Cheng and Prusoff correction; for inhibition at 10 µM: measured at a concentration of 10 μM of compound (cells marked ^a)
Method in brief: as §1

Compound: C[C@H](CNC(=O)c1ccccn1)[C@H](Cc1ccccc1)N(C)C(=O)c1ccccc1 [Example 112, Pyridine-2-carboxylic acid [(2R,3S)-3-(benzoyl-methyl-amino)-2-methyl-4-phenyl-butyl]-amide]
- Kd [1]: 498 nM
- Kd [2]: 477 nM
- Kd [3]: 1160 nM
- Kd [4]: 415 nM

Compound: COc1ccc(C(=O)N(C)[C@H](CCNC(=O)c2nc3ccccc3n2C)Cc2ccccc2)cc1OC [Example 80, 1-Methyl-1H-benzoimidazole-2-carboxylic acid {(S)-3-[(3,4-dimethoxy-benzoyl)-methyl-amino]-4-phenyl-butyl}-amide]
- Kd [1]: 97 nM
- Kd [2]: 59 nM
- Kd [3]: 98 nM
- Kd [4]: 541 nM

Compound: CN(C(=O)c1ccccc1)[C@H](CCNC(=O)c1ccc2c(c1)OCO2)Cc1ccccc1 [Example 93, Benzo[1,3]dioxole-5-carboxylic acid [(S)-3-(benzoyl-methyl-amino)-4-phenyl-butyl]-amide]
- Kd [1]: 164 nM
- Kd [2]: 3110 nM
- Kd [3]: 114 nM
- inhibition at 10 µM [4]: 30%

Compound: CN(C(=O)c1cccc2c1OCCO2)[C@H](CCNC(=O)c1ccccn1)Cc1ccccc1 [Example 54, Pyridine-2-carboxylic acid {(S)-3-[(2,3-dihydro-benzo[1,4]dioxine-5-carbonyl)-methyl-amino]-4-phenyl-butyl}-amide]
- Kd [1]: 958 nM
- Kd [2]: > 10000 nM
- Kd [3]: 1730 nM
- inhibition at 10 µM [4]: 9%

Compound: COc1ccc(C(=O)N(C)[C@H](CCNC(=O)c2ccccn2)Cc2ccccc2)cc1OC [Example 9, Pyridine-2-carboxylic acid {(S)-3-[(3,4-dimethoxy-benzoyl)-methyl-amino]-4-phenyl-butyl}-amide]
- Kd [1]: 145 nM
- Kd [2]: 474 nM
- Kd [3]: 46 nM
- Kd [4]: 1400 nM

Compound: CN(C(=O)c1ccc2occc2c1)[C@H](CCNC(=O)c1ccccn1)Cc1ccccc1 [Example 20, Pyridine-2-carboxylic acid {(8)-3-[(benzofuran-5-carbonyl)-methyl-amino]-4-phenyl-butyl}-amide]
- Kd [1]: 123 nM
- Kd [2]: 163 nM
- Kd [3]: 168 nM
- Kd [4]: 413 nM

Compound: CCN(C(=O)c1ccc2c(c1)OCO2)[C@H](CCNC(=O)c1ccccn1)Cc1ccccc1 [Example 8, Pyridine-2-carboxylic acid {(S)-3-[(benzo[1,3]dioxole-5-carbonyl)-ethyl-amino]-4-phenyl-butyl}-amide]
- Kd [1]: 32 nM
- Kd [2]: 270 nM
- Kd [3]: 46 nM
- Kd [4]: 211 nM

Compound: CN(C(=O)c1ccc2ccccc2c1)[C@H](CCNC(=O)c1ccccn1)Cc1ccc(Cl)cc1 [Example 53, Pyridine-2-carboxylic acid {(S)-4-(4-chloro-phenyl)-3-[methyl-(naphthalene-2-carbonyl)-amino]-butyl}-amide]
- Kd [1]: 748 nM
- Kd [2]: 3410 nM
- Kd [3]: 1460 nM
- inhibition at 10 µM [4]: 13%

Compound: 1-Methyl-1H-pyrrole-2-carboxylic acid {(8)-3-[(3,5-difluoro-benzoyl)-methyl-amino]-4-phenyl-butyl}-amide [Example 118]
- Kd [1]: 55 nM
- Kd [2]: 977 nM
- Kd [3]: 76 nM
- Kd [4]: 1070 nM

Compound: Cc1nc2sccn2c1C(=O)NCC[C@H](Cc1ccccc1)N(C)C(=O)c1ccccc1 [Example 33, 6-Methyl-imidazo[2,1-b]thiazole-5-carboxylic acid [(S)-3-(benzoyl-methyl-amino)-4-phenyl-butyl]-amide]
- Kd [1]: 76 nM
- Kd [2]: 5730 nM
- Kd [3]: 450 nM
- Kd [4]: 1960 nM

Compound: CN(C(=O)c1ccccc1)[C@@H](CCNC(=O)c1ccccn1)Cc1ccccc1 [Example 68, Pyridine-2-carboxylic acid [(R)-3-(benzoyl-methyl-amino)-4-phenyl-butyl]-amide]
- Kd [1]: 2370 nM
- Kd [2]: > 10000 nM
- Kd [3]: 7530 nM
- Kd [4]: 3580 nM

Compound: CN(C(=O)c1ccc2c(c1)OC(F)(F)O2)[C@H](CCNC(=O)c1cccn1C)Cc1ccccc1 [Example 107, 1-Methyl-1H-pyrrole-2-carboxylic acid {(S)-3-[(2,2-difluoro-benzo[1,3]dioxole-5-carbonyl)-methyl-amino]-4-phenyl-butyl}-amide]
- Kd [1]: 54 nM
- Kd [2]: 2510 nM
- Kd [3]: 162 nM
- Kd [4]: 1070 nM

Compound: COc1cccc(C(=O)N(C)[C@H](CCNC(=O)c2cccn2C)Cc2ccccc2)c1 [Example 103, 1-Methyl-1H-pyrrole-2-carboxylic acid {(S)-3-[(3-methoxy-benzoyl)-methyl-amino]-4-phenyl-butyl}-amide]
- Kd [1]: 8 nM
- Kd [2]: 624 nM
- Kd [3]: 19 nM
- Kd [4]: 1400 nM

Compound: CN(C(=O)c1cccc2c1OCO2)[C@H](CCNC(=O)c1ccccn1)Cc1ccc(F)cc1 [Example 63, Pyridine-2-carboxylic acid [(S)-3-[(benzo[1,3]dioxole-4-carbonyl)-methyl-amino]-4-(4-fluoro-phenyl)-butyl]-amide]
- inhibition at 10 µM [1]: 24%
- Kd [2]: > 10000 nM
- Kd [3]: 5900 nM
- inhibition at 10 µM [4]: 0%

Compound: CN(C(=O)c1cc(C(F)(F)F)cc(C(F)(F)F)c1)C(CCNC(=O)c1ccccn1)Cc1ccc(Cl)cc1 (stereo not shown) [Example 16, Pyridine-2-carboxylic acid [3-[(3,5-bis-trifluoromethyl-benzoyl)-methyl-amino]-4-(4-chloro-phenyl)-butyl]-amide]
- Kd [1]: 44 nM
- Kd [2]: > 10000 nM
- Kd [3]: 74 nM
- Kd [4]: 1510 nM

Compound: CN(C(=O)c1ccc2c(c1)OCO2)[C@H](CCNC(=O)c1nc2ccccc2n1C)Cc1ccccc1 [Example 31, 1-Methyl-1H-benzoimidazole-2-carboxylic acid {(S)-3-[(benzo[1,3]dioxole-5-carbonyl)-methyl-amino]-4-phenyl-butyl}-amide]
- Kd [1]: 43 nM
- Kd [2]: 164 nM
- Kd [3]: 410 nM
- Kd [4]: 57 nM

Compound: CN(C(=O)c1ccc2ccccc2c1)[C@H](CCNC(=O)c1nc2ccccc2n1C)Cc1ccc(Cl)cc1 [Example 50, 1-Methyl-1H-benzoimidazole-2-carboxylic acid {(S)-4-(4-chloro-phenyl)-3-[methyl-(naphthalene-2-carbonyl)-amino]-butyl}-amide]
- Kd [1]: 59 nM
- Kd [2]: 783 nM
- Kd [3]: 1110 nM
- Kd [4]: 32 nM

Compound: CN(C(=O)c1ccccc1)[C@H](CCNC(=O)c1ccnc2ccccc12)Cc1ccccc1 [Example 2, Quinoline-4-carboxylic acid [(S)-3-(benzoyl-methyl-amino)-4-phenyl-butyl]-amide]
- inhibition at 10 µM [1]: 19%
- Kd [2]: > 10000 nM
- Kd [3]: 4970 nM
- inhibition at 10 µM [4]: 4%

Compound: Cc1cc(C)cc(C(=O)N(C)[C@H](CCNC(=O)c2cccn2C)Cc2ccccc2)c1 [Example 125, 1-Methyl-1H-pyrrole-2-carboxylic acid {(S)-3-[(3,5-dimethyl-benzoyl)-methyl-amino]-4-phenyl-butyl}-amide]
- Kd [1]: 2 nM
- Kd [2]: 176 nM
- Kd [3]: 7 nM
- Kd [4]: 230 nM
